From US9295630B2, “Vitamin C complexes” (CENTRE NATIONAL DE LA RECHERCHE SCIENTIFIQUE, priority 2012, dated 2016) come the findings set out here.

Type in all cases: cell-based
One series deals with explants of human skin. Nature of the series: General morphology / acanthosis of human skin explants (Masson's trichrome staining). Conditions: for dermal stimulation / epidermal stimulation: topical, D10, relative to control No. 0. As to the method:
(§1) Explants of human skin with a diameter of about […], obtained from surgical waste from cosmetic surgery and more particularly from abdominoplasty of women about thirty years of age, are used. The human skin is kept alive in a usual nutrient medium at 37° C. in humid atmosphere, enriched with 5% CO2, for ten days.
(§2) The explants of human skin are treated using a gel according to the invention comprising the VitC-SQ complex or conjugate according to the invention obtained in example 1a formulated in squalene as described in example 3 to obtain compositions comprising 1 wt % and 3 wt % respectively, expressed as weight of vitamin C active ingredient relative to the total weight of the composition. To obtain values of 1% and 3% respectively, expressed as weight of vitamin C, the concentration of the VitC-SQ complex is adjusted accordingly.
(§3) These two active ingredients are used at a concentration of 1 wt % and 3 wt %, expressed as weight of vitamin C active ingredient relative to the total weight of the composition.
(§4) Each of the compositions tested is applied topically, at a rate of 2 mg per explant, on the explants of human skin using a spatula on day zero (DO), then at 1 day (D1), at 3 days (D3), at 6 days (D6) and finally at 8 days (D8).
(§5) On the tenth day, the explants treated with each of the compositions are taken and are submitted to the same conditions as the explants of control No. 0.
After 48 hours of fixation in ordinary Bouin, the samples are dehydrated and impregnated with paraffin using a Leica 1020 automatic dehydrator. Then they are made into a block according to procedure MO-H-153 using a Leica EG 1160 coating station.
5-μm sections are prepared using a Minot type microtome, Leica RM 2125, and are glued on superfrost silanized glass histology slides.
Microscopic observations are performed in light microscopy, using a Leica microscope of the Orthoplan type, with x 25 and x 40 objectives. The images are recorded with a Sony DXC 390P tri CCD camera and are stored using Leica IM1000 data archiving software.
Acanthosis of the skin, and more generally observation of the general morphology is carried out on sections in paraffin after staining with Masson's trichrome, Goldner's variant, according to procedure MO-H-157.

The next series relates to type I collagen. Nature of the series: Expression of type I collagen in human skin explants (immunolabeling). The note with it: gel at 3 wt % as vitamin C, topical, D10, relative to control No. 0. As to the method:
(§6) For this assessment, only certain of the explants of human skin described above are used. More particularly, they are untreated explants (control No. 0) and explants treated with VitC-SQ according to the invention at 3 wt %, with free vitamin C at 3 wt % (control No. 1) and with VitC-palm at 3 wt % (control No. 2), expressed as weight of vitamin C active ingredient relative to the total weight of the composition.
(§7) The microscopic observations are carried out in light microscopy, using a Leica microscope, type DMLB, with x 40 objective. The images were recorded with an Olympus DP72 camera, using Olympus Cell^D acquisition and archiving software.
Type I collagen is labeled on frozen sections with a rabbit anti-human collagen I antibody (Monosan ref PS047, polyclonal), at 1/800th for 1 hour at room temperature with a biotin/streptavidin amplifier system, detected by fluorescence (FITC caltag SA 1001). The nuclei were counterstained with propidium iodide.

For series [1], the system named is CCD34SK human fibroblasts. Nature of the series: Test of cellular viability (MTT assay). The note with it: for IC50: 4 h incubation then 48 h, read-out: IC50 (loss of 50% in cellular viability). On the procedure:
10 000 cells of CCD34SK human fibroblasts per well were seeded in a 96-well plate.
The test products are added to the wells in different concentrations. After 4 h of incubation, the culture medium is replaced with new biological medium and the cells are incubated for 48h at 37° C. and 5% CO2.
Then, the culture medium is removed by inverting and 100 μL, of PBS/well with MTT at a concentration of 0.5 mg/ml is added. The plate is put back in the incubator for 2 h at 37° C. and 5% CO2. In order to dissolve the dark blue crystals of formazan that have formed, 100 μL of a solution of SDS (sodium dodecyl sulfate) is added to each well and then the plate is incubated again for 12 h at 37° C. and 5% CO2.
At the end of the 12 h, spectrophotometric measurements are carried out on an ELISA plate reader at a wavelength of 570 nm. The percentage viability of the cells in the presence of the test molecules is then calculated from the following formula: (mean OD of the treated cells—OD of control with medium only/mean OD of the control cells (100% viability)—OD of control with medium only)×100±standard deviation; or presented in the form of curves plotting the evolution of absorbance as a function of time.
The IC50 values (“inhibitory concentration 50%” or the concentration that inhibits growth of 50% of the cells) then correspond to a product concentration tested generating a loss of 50% in cellular viability (see Table below).
On the technique in general: Tetrazolium dyes change colour on reduction, which living cells bring about.

A further series relates to acid GAGs. Kind of series: Expression of acid GAGs in human skin explants (alcian blue/PAS staining). Conditions: topical, D10, relative to control No. 0. On the procedure: as §1, §2, §3, §4, §5
(§8) Neutral GAGs, reservoirs of the growth factors near the dermal-epidermal junction, and acid GAGs, essentially hyaluronic acid, are examined on paraffin sections after staining with alcian blue/PAS (Mowry staining)

The subject of another series is type III collagen. Kind of series: Expression of type III collagen in human skin explants (immunolabeling). Conditions: gel at 3 wt % as vitamin C, topical, D10, relative to control No. 0. On the procedure: as §6, §7
Regarding the labeling of type III collagen, the latter is labeled on sections in paraffin (fixation with formol) with a goat anti-human collagen III polyclonal antibody (SBA ref: 1330-01), at 1/50th overnight at room temperature using a Vectastain RTU Universal VECTOR avidin/biotin amplifier system, detected in diaminobenzidine (DAB) with the nuclei counterstained with Masson's hemalum.

Another series relates to neutral GAGs. Nature of the series: Expression of neutral GAGs in human skin explants (alcian blue/PAS staining). Conditions: topical, D10, relative to control No. 0. As to the method:
as §1, §2, §3, §4, §5, §8

As usually defined, the IC50 is the concentration that inhibits the measured activity by half.

Each structure is given as a SMILES string. Like-named read-outs stand apart in the source and are kept apart here.

As for `CC(C)=CCCC(C)=CCCC(C)=CCCC=C(C)CCC=C(C)CCC(=O)OC[C@H](O)[C@H]1OC(=O)C(O)=C1O` [VitC-SQ, 6-O-[4,8,13,17,21-pentamethyl-docosa-4,8,12,16,20-pentaenoyl] ascorbic acid], in the series with explants of human skin (at equivalent dose of vitamin C), the “dermal and epidermal stimulation compared with VitC-Palm” value is given as “greater than VitC-Palm”. Moreover, the dermal stimulation result is “Moderate dermal stimulation” with explants of human skin (gel at 1 wt % as vitamin C) and “Fairly definite dermal stimulation” in the series with explants of human skin (gel at 3 wt % as vitamin C). The epidermal stimulation result was “Slight epidermal stimulation” with explants of human skin (gel at 1 wt % as vitamin C) and “Definite epidermal stimulation” in the series with explants of human skin (gel at 3 wt % as vitamin C). The “expression of type I collagen” value with type I collagen is reported as “Slight underexpression of type I collagen”. Besides, in series [1], the “toxicity relative to VitC-palm” value was “half as toxic as VitC-palm”. For the same compound, the IC50 in series [1] (Fibroblast) came to 600 µM. The figures for the “overexpression of epidermal acid GAGs” value in the series with acid GAGs (gel at 1 wt % as vitamin C) and in the series with acid GAGs (gel at 3 wt % as vitamin C) were “No overexpression of the epidermal acid GAGs” and “No overexpression of epidermal acid”, respectively. Further, the “expression of type III collagen” value in the series with type III collagen is listed as “Slight overexpression of type III collagen”. Further, the figures for the “overexpression of neutral GAGs” value with neutral GAGs (gel at 1 wt % as vitamin C) and in the series with neutral GAGs (gel at 3 wt % as vitamin C) were “Slight overexpression of neutral GAGs” and “Definite overexpression of neutral GAGs”, respectively.

As for `O=C1OC(C(O)CO)C(O)=C1O` (centres unmarked) [Free vitamin C, 5-(1,2-dihydroxy-ethyl)-3,4-dihydroxy-5H-furan-2-one], the “effect on skin explants (overall)” value in the series with explants of human skin (dose less than or equal to 3 wt % as vitamin C) is on record as “no effect”. In addition, the dermal stimulation entry in the series on explants of human skin (gel at 1 wt % as vitamin C) was “No dermal stimulation”; in the series on explants of human skin (gel at 3 wt % as vitamin C), “Moderate dermal stimulation”. Besides, the epidermal stimulation entry with explants of human skin (gel at 1 wt % as vitamin C) and with explants of human skin (gel at 3 wt % as vitamin C) was “No epidermal stimulation” in each case. Also, the “expression of type I collagen” value with type I collagen was “No overexpression of type I collagen”. In addition, the “overexpression of epidermal acid GAGs” value in the series on acid GAGs (gel at 1 wt % as vitamin C) and with acid GAGs (gel at 3 wt % as vitamin C) was “No overexpression of epidermal acid” throughout. For the same compound, in the series with type III collagen, the “expression of type III collagen” value is “No overexpression of type III collagen”. The “overexpression of neutral GAGs” value in the series with neutral GAGs (gel at 1 wt % as vitamin C) and with neutral GAGs (gel at 3 wt % as vitamin C) was “No overexpression of neutral GAGs” throughout.

With `CCCCCCCCCCCCCCCC(=O)OC[C@H](O)[C@H]1OC(=O)C(O)=C1O` [VitC-palm, 6-ascorbyl palmitate], the results for the dermal stimulation entry in the series on explants of human skin (gel at 1 wt % as vitamin C) and in the series with explants of human skin (gel at 3 wt % as vitamin C) were “No dermal stimulation” and “Moderate dermal stimulation”, respectively. In addition, the epidermal stimulation entry with explants of human skin (gel at 1 wt % as vitamin C) and in the series with explants of human skin (gel at 3 wt % as vitamin C) was “No epidermal stimulation” in each case. Besides, the “expression of type I collagen” value with type I collagen was “No overexpression of type I collagen”. Also, the concentration for half-maximal inhibition (IC50) in series [1] stood at 250 µM. Further, the “overexpression of epidermal acid GAGs” value in the series on acid GAGs (gel at 1 wt % as vitamin C) and in the series with acid GAGs (gel at 3 wt % as vitamin C) was “No overexpression of epidermal acid” throughout. Besides, the “expression of type III collagen” value in the series on type III collagen is recorded as “Very slight overexpression of type III”. In addition, the entries for the “overexpression of neutral GAGs” value with neutral GAGs (gel at 1 wt % as vitamin C) and in the series with neutral GAGs (gel at 3 wt % as vitamin C) were “Slight overexpression of neutral GAGs” and “Very moderate overexpression of neutral”, respectively.
